Reference: ChEMBL document CHEMBL1131749, “Landomycin A inhibits DNA synthesis and G1/S cell cycle progression” (1999)

Assays:
Type in all cases: functional
Mus musculus [1] = species on record: Mus musculus; assay: Inhibition of uptake of [3H]thymidine into DNA by murine smooth cells at a concentration of 20 nM after 20 hours
Mus musculus [2] = species on record: Mus musculus; assay: Inhibition of uptake of [3H]thymidine into DNA by murine smooth cells at a concentration of 20 nM after 24 hours
Mus musculus [3] = species on record: Mus musculus; assay: Inhibition of uptake of [3H]thymidine into DNA by murine smooth cells at a concentration of 80 nM after 16 hours
Mus musculus [4] = species on record: Mus musculus; assay: Inhibition of uptake of [3H]-thymidine into DNA by murine smooth cells at a concentration of 80 nM after 20 hours
Mus musculus [5] = species on record: Mus musculus; assay: Inhibition of uptake of [3H]thymidine into DNA by murine smooth cells at a concentration of 80 nM after 24 hours
Mus musculus [6] = species on record: Mus musculus; assay: Inhibition of uptake of [3H]thymidine into DNA by murine smooth cells at a concentration of 200 nM after 24 hours
Mus musculus [7] = species on record: Mus musculus; assay: Inhibition of uptake of [3H]thymidine into DNA by murine smooth cells at a concentration of 20 nM after 16 hours
Mus musculus [8] = species on record: Mus musculus; assay: Inhibition of uptake of [3H]thymidine into DNA by murine smooth cells at a concentration of 200 nM after 16 hours
Mus musculus [9] = species on record: Mus musculus; assay: Inhibition of uptake of [3H]thymidine into DNA by murine smooth cells at a concentration of 200 nM after 20 hours

Work on Cc1cc(O)c2c(c1)C[C@@H](O)C1=C2C(=O)c2c(O)ccc(O[C@H]3C[C@@H](O)[C@H](O[C@H]4C[C@@H](O[C@H]5CC[C@H](O[C@H]6C[C@@H](O)[C@H](O[C@H]7C[C@@H](O[C@H]8CC[C@H](O)[C@H](C)O8)[C@H](O)[C@@H](C)O7)[C@@H](C)O6)[C@H](C)O5)[C@H](O)[C@@H](C)O4)[C@@H](C)O3)c2C1=O [LANDOMYCIN A] yielded an Inhibition (Mus musculus [1]) of 45000 c.p.m./Abs, an Inhibition (Mus musculus [2]) of 65000 c.p.m./Abs and an Inhibition (Mus musculus [3]) of 5000 c.p.m./Abs. It also gave an Inhibition (Mus musculus [4]) of 30000 c.p.m./Abs, an Inhibition (Mus musculus [5]) of 60000 c.p.m./Abs and an Inhibition (Mus musculus [6]) of 20000 c.p.m./Abs. It also gave an Inhibition (Mus musculus [7]) of 10000 c.p.m./Abs, an Inhibition (Mus musculus [8]) of 0 c.p.m./Abs and an Inhibition (Mus musculus [9]) of 5000 c.p.m./Abs.
